Source: patent US20250109165A1, “CYCLOPHILIN INHIBITORS AND USES THEREOF” (The Broad Institute, Inc., priority 2022, published 2025)

Assays:
[1] = biological target: T1, CypD (Homo sapiens, UniProt P30405); test: Chymotrypsin coupled prolyl-isomerase assay; type: biochemical; conditions: for IC50: wild-type CypD
T1 construct: PPIF (UniProtKB Entry P30405: res 45-207); made in house; host or cells: E. coli BL21(DE3)
Protocol: (§1) IC50 values were calculated to be the value at which 50% inhibition was achieved on each compound's non-linear regression fitted curve.

[2] = system: A549, HeLa, HEK293T, HepG2, and MEFs; test: Cellular esterase activity on ester pro-drug Cy5 derivatives; type: in vitro ADME, human and mouse; conditions: 6 μM, 48 hours (36 hours for HepG2)
Protocol: Cellular esterase activity on ester pro-drug Cy5 derivatives of CypD inhibitors. Into 96-well clear, flat-bottom TC-treated plates, cells were seeded in DMEM supplemented with 10% FBS for HEK293T, HeLa, and MEFs, F-12K supplemented with 10% FBS for A549, or MEM supplemented with 10% FBS for HepG2, 24 hours prior at a density where wells were ˜70% confluent at time of experiment. Media was removed and cells were incubated with 100 μL of mixture containing each Cy5-conjugated compound (6 μM) in their respective media at 1% DMSO for 48 hours (36 hours for HepG2) at 37° C. at 5% CO2. Supernatant was removed, and cells were washed 2 times with 100 μL of PBS pH 7.4 (Gibco). Cells were then lysed for 15 minutes with 30 μL of 10 mM Tris-HCl pH 8.0 buffer containing 0.05% SDS. Lysates were diluted with 100 μL acetonitrile and filtered. Lysates were analyzed by LC-MS at Harvard's Center for Mass Spectroscopy. Di-ester, mono-ester, and di-acid abundances were quantified by total ion count of the primary isotope, and the three compounds were summed and each one expressed as a fraction of the total sum.

[3] = system: HeLa cells; test: Fluorescence microscopy on HeLa cells; type: cell-based, human; conditions: Cy5 labeled compound 6 μM
Protocol: Fluorescence microscopy on Hela cells. Into 96 well black, clear bottom TC treated plates, cells were seeded in Dulbecco's Modified Eagle Medium (DMEM) supplemented with 10% fetal bovine serum 24 hours prior at a density where wells were ˜80% confluent at time of experiment. Media was removed and cells were then stained with 50 μL of mixture containing Cy5 labeled compound (6 μM) in Kreb's ringer solution HEPES buffered pH 7.2 (KRB), for 1 hour at 37° C. Then, 50 μL Hoechst 33342 (8 μM) and Mitotracker Green FM (0.1 μM) in KRB was added directly to wells containing cells and incubated for 15 minutes at 37° C. Media was removed and cells were washed two times with 100 μL KRB. Cells were then kept adherent to the wells in 100 μL KRB for imaging. Fluorescence microscopy was conducted on an Opera Phenix Plus High-Content Screening System, using Alexa 488, Alexa 647, and Hoescht 33342 channels. Images were analyzed using Harmony 4.9.

[4] = biological target: T2, human carboxylesterase (CES1) (Homo sapiens, UniProt P23141); test: In vitro esterase activity on ester pro-drug Cy5 derivatives; type: in vitro ADME; conditions: 0.25 μM CES1, 37° C., 8 hours
T2 sequence (P23141 18-567): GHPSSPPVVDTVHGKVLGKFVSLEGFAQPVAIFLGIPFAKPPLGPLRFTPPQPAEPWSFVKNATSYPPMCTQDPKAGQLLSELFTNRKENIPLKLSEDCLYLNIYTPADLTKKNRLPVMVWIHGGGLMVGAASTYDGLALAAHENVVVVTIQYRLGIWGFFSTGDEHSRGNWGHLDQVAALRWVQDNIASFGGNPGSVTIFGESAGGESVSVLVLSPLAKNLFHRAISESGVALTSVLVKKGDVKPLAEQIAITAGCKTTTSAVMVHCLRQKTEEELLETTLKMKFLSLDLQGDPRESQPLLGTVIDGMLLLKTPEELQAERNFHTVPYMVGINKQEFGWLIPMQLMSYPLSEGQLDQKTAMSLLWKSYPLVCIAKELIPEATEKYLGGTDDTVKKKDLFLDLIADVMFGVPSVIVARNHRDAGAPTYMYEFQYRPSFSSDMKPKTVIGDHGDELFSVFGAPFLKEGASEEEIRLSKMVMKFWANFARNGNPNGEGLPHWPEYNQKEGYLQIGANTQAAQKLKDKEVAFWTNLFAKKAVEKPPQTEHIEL
Protocol: In vitro esterase activity on ester pro-drug Cy5 derivatives of CypD inhibitors. Into PCR tubes, ester compound (6 μM) and either buffer only, CES1 (0.25 μM), or CES2 (0.25 μM) was diluted in 100 mM Tris-HCl buffer, pH 7.4, with a final DMSO concentration of 1%. Samples were maintained on a PCR block at 37° C. for 8 hours. After incubation, samples were diluted with 20 μL acetonitrile and analyzed by LC-MS at Harvard's Center for Mass Spectroscopy. Di-ester, mono-ester, and di-acid abundances were quantified by total ion count of the primary isotope, and the three compounds were summed and each one expressed as a fraction of the total sum.

[5] = system: cyclophilins; test: Prolyl-isomerase inhibition screen on cyclophilins and cyclophilin mutants; type: biochemical, human
Protocol: as §1

[6] = biological target: T3, CypD R124A (Homo sapiens, UniProt P30405, R124A); test: Chymotrypsin coupled prolyl-isomerase assay; type: biochemical; conditions: CypD R124A mutant; read-out: IC50^CypDR124A
T3 construct: made in house; host or cells: E. coli BL21(DE3)
T3 sequence (P30405 45-207 R124A): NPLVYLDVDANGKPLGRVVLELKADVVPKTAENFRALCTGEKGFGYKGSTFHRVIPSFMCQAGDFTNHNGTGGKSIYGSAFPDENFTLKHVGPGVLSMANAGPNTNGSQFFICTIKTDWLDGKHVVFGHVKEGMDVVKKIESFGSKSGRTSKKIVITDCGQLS
Protocol: as §1

[7] = biological target: T4, CypD K118E/R124A (Homo sapiens, UniProt P30405, K118E/R124A); test: Chymotrypsin coupled prolyl-isomerase assay; type: biochemical
T4 construct: made in house; host or cells: E. coli BL21(DE3)
T4 sequence (P30405 45-207 K118E/R124A): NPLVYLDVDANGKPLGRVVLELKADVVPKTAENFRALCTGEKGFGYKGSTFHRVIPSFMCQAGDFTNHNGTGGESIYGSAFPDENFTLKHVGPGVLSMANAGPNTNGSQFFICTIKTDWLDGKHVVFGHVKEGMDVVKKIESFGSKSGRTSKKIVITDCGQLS
Protocol: as §1

[8] = system: CypD; test: Chymotrypsin coupled prolyl-isomerase assay; type: biochemical, human
Protocol: as §1

[9] = biological target: T5, CypD K118E (Homo sapiens, UniProt P30405, K118E); test: Chymotrypsin coupled prolyl-isomerase assay; type: biochemical; conditions: CypD K118E mutant; read-out: IC50^CypDK118E
T5 construct: made in house; host or cells: E. coli BL21(DE3)
T5 sequence (P30405 45-207 K118E): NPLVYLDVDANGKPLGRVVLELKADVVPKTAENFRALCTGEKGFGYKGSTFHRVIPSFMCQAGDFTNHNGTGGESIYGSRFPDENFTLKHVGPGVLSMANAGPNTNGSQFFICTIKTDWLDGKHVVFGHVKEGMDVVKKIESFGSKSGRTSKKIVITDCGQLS
Protocol: as §1

[10] = biological target: T6, CypA (Homo sapiens, UniProt P62937); test: Chymotrypsin coupled prolyl-isomerase assay; type: biochemical; conditions: wild-type CypA
T6 construct: PPIA (UniProtKB Entry P62937: res 1-165); made in house; host or cells: E. coli BL21(DE3)
T6 sequence (P62937 whole entry): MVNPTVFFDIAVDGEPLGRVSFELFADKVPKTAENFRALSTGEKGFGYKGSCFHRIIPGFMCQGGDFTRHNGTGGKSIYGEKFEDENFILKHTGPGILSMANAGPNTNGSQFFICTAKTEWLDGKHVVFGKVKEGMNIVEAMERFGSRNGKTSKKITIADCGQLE
Protocol: as §1

[11] = biological target: T7, CypD K118A (Homo sapiens, UniProt P30405, K118A); test: Chymotrypsin coupled prolyl-isomerase assay; type: biochemical; conditions: CypD K118A mutant; read-out: IC50^CypDK118A
T7 construct: made in house; host or cells: E. coli BL21(DE3)
T7 sequence (P30405 45-207 K118A): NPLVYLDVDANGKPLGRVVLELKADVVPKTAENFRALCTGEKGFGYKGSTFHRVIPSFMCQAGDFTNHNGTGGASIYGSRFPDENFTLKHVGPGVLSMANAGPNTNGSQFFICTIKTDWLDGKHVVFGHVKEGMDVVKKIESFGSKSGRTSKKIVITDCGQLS
Protocol: as §1

[12] = biological target: T8, CypB (Homo sapiens, UniProt P23284); test: Chymotrypsin coupled prolyl-isomerase assay; type: biochemical; conditions: wild-type CypB
T8 construct: PPIB (UniProtKB Entry P23284: res 34-216); His6 tag with TEV site (seen as […]- and […]- forms) (N); made in house; host or cells: E. coli BL21(DE3)
T8 sequence (P23284 34-216): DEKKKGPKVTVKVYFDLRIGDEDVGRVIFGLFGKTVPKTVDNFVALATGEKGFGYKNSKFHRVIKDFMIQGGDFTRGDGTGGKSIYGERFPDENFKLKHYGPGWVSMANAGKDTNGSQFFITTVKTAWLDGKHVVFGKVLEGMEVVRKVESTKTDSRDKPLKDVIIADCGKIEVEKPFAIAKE
Protocol: as §1

[13] = biological target: T9, CypB E121S (Homo sapiens, UniProt P23284, E121S); test: Chymotrypsin coupled prolyl-isomerase assay; type: biochemical; conditions: CypB E121S gatekeeper mutant; read-out: IC50^CypBE121S
T9 construct: Lane 14-SNA-CypB E121S (34-216); His6 tag (N, cleaved yes); made in house; host or cells: E. coli BL21(DE3)
T9 sequence (P23284 34-216 E121S): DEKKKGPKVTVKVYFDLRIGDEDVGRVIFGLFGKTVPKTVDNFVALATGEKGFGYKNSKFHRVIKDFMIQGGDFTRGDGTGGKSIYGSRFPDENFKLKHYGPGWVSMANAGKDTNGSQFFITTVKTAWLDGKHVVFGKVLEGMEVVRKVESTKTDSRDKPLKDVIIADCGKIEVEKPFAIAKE
Protocol: as §1

[14] = biological target: T10, CypD S123E (Homo sapiens, UniProt P30405, S123E); test: Chymotrypsin coupled prolyl-isomerase assay; type: biochemical; conditions: CypD S123E gatekeeper mutant; read-out: IC50^CypDS123E
T10 construct: made in house; host or cells: E. coli BL21(DE3)
T10 sequence (P30405 45-207 S123E): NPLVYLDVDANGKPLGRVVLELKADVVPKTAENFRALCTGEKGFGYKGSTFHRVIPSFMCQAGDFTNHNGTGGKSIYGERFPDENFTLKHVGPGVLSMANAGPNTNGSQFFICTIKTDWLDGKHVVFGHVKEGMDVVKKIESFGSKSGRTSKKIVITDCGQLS
Protocol: as §1

[15] = biological target: T11, CypA E81S/K82R (Homo sapiens, UniProt P62937, E81S/K82R); test: Chymotrypsin coupled prolyl-isomerase assay; type: biochemical; conditions: CypA E81S/K82R gatekeeper mutant; read-out: IC50^CypAE81S/K82R
T11 construct: Lane 12-SNA-CypA E81S/K82R (1-165); His6 tag (N, cleaved yes); made in house; host or cells: E. coli BL21(DE3)
T11 sequence (P62937 whole entry E81S/K82R): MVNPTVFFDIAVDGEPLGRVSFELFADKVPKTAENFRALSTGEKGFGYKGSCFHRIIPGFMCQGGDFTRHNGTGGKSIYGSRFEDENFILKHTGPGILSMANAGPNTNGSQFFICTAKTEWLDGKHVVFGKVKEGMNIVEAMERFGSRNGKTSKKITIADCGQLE
Protocol: as §1

T1 sequence (P30405 45-207): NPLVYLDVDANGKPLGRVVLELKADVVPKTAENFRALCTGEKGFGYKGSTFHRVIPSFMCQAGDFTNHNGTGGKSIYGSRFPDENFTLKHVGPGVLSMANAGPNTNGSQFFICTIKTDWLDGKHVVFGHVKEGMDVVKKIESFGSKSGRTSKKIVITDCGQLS

CCOC(=O)C(Cc1ccc(-c2ccc(C[C@H]3NC(=O)[C@@]4(Cc5ccccc5)CCCN(C4)C(=O)/C=C/C(=O)NCC[C@H](C(=O)NCCNC(=O)CCCCCN4\C(=C/C=C/C=C/C5=[N+](C)c6ccccc6C5(C)C)C(C)(C)c5ccccc54)NC(=O)Cc4ccccc4CNC3=O)cc2)cc1)C(=O)OCC [*B52-Et-Cy5]
CypD prolyl-isomerase inhibition (in words) [1]: did not potently inhibit | intracellular conversion to di-acid by endogenous esterases [2]: readily converted to the corresponding di-acid | mitochondrial localization (overlap with Mitotracker Green) [3]: good mitochondrial localization | plasma membrane / mammalian cell permeability [3]: Strong mammalian cell permeability and mitochondrial localization | hydrolysis of ester prodrug by CES1 [4]: hydrolyzed to their active dicarboxylate forms

CCOC(=O)CC(CC(=O)OCC)c1ccc(-c2ccc(C[C@H]3NC(=O)[C@@]4(Cc5ccccc5)CCCN(C4)C(=O)/C=C/C(=O)NCC[C@H](C(=O)NCCNC(=O)CCCCCN4\C(=C/C=C/C=C/C5=[N+](C)c6ccccc6C5(C)C)C(C)(C)c5ccccc54)NC(=O)Cc4ccccc4CNC3=O)cc2)cc1 [*B53-Et-Cy5]
CypD prolyl-isomerase inhibition (in words) [1]: did not potently inhibit | mitochondrial localization (overlap with Mitotracker Green) [3]: good mitochondrial localization | plasma membrane / mammalian cell permeability [3]: Strong mammalian cell permeability and mitochondrial localization | hydrolysis of ester prodrug by CES1 [4]: hydrolyzed to their active dicarboxylate forms

NCCCc1ccc(-c2ccc(C[C@@H]3NC(=O)[C@]4(Cc5ccccc5)CCCN(C4)C(=O)/C=C/C(=O)NCC[C@@H](C(=O)NCCOCCN)NC(=O)Cc4ccccc4CNC3=O)cc2)cc1 [Compound B32]
inhibition of cyclophilins tested (in words) [5]: overall poor potency for each cyclophilin | IC50 [6]: 700 nM | reduction in CypD potency ([1]; on inserting an amine with a net positive charge): > 1,000 fold | IC50 [1]: 6000 nM | preference for CypD K118E/R124A over the nearest cyclophilin, PPWD1 [7]: at least 13 fold | improvement compared to wild-type CypD ([7]; CypD K118E/R124A): 100 fold | IC50 ([7]; CypD double mutant, read-out: IC50^CypDK11E/R124A): 60 nM | inhibition potency improvement compared to wild-type CypD ([8]; CypD mutants K118E and R124A): 5- to 6 fold | IC50 [9]: 1100 nM

NCCOCCNC(=O)[C@@H]1CCNC(=O)/C=C/C(=O)N2CCC[C@](Cc3ccccc3)(C2)C(=O)N[C@@H](Cc2ccc(-c3ccc(C(CC(=O)O)CC(=O)O)cc3)cc2)C(=O)NCc2ccccc2CC(=O)N1 [Compound B53]
cyclophilin selectivity profile (in words) [5]: high potency and selectivity for CypD | potency on cyclophilin mutants compared to wild-type (in words) ([5]; mutants as named at the place): little to no ablation of potency | IC50 [10]: 3400 nM | IC50 [1]: 57 nM | IC50 [11]: 900 nM | selectivity for CypD over CypA ([8]; CypD versus wild-type CypA): 100 fold | IC50 [12]: 1100 nM | IC50 [9]: 4000 nM | IC50 [13]: 50 nM | IC50 [14]: 800 nM | IC50 [15]: 180 nM
